Measured values published in ChEMBL document CHEMBL1201862, “PubChem BioAssay data set” (2004).
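Cultured in 96-well plates, cells were exposed to test compound for 48 hours across five concentrations. At the GI50, growth is halved.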 The source made the active and inactive calls. Cut-off read from the data, not from the text of the source: active = GI50 up to about 1.1 µM and inactive = higher.

Legend:
Assay in all cases: inhibition of tumour cell growth, NCI panel, 48 h
SF-539 = system: SF-539
HOP-62 = system: HOP-62
NCI-H460 = system: NCI-H460
COLO 205 = system: COLO 205
SK-MEL-28 = system: SK-MEL-28
A549 = system: A549
UACC-62 = system: UACC-62
RXF 393 = system: RXF 393
UACC-257 = system: UACC-257
UO-31 = system: UO-31
KM12 = system: KM12
OVCAR-4 = system: OVCAR-4
786-0 = system: 786-0
IGROV-1 = system: IGROV-1
SNB-75 = system: SNB-75
RPMI-8226 = system: RPMI-8226

Measured: GI50

Cc1cc(C)c(C(=O)O)c(SSc2cc(C)cc(C)c2C(=O)O)c1
inactive: SF-539 > 100 µM | HOP-62 > 100 µM | NCI-H460 > 100 µM | COLO 205 > 100 µM | SK-MEL-28 > 100 µM | A549 > 100 µM | UACC-62 > 100 µM | RXF 393 > 100 µM | UACC-257 > 100 µM | UO-31 > 100 µM | KM12 > 100 µM | OVCAR-4 > 100 µM | 786-0 > 100 µM

O=C(CC1S/C(=N\c2ccccc2Cl)NC1=O)Nc1ccc(Cl)cc1 (stereo not drawn)
inactive: SF-539 > 100 µM | HOP-62 > 100 µM | NCI-H460 > 100 µM | COLO 205 26.4 µM | SK-MEL-28 > 100 µM | A549 > 100 µM | UACC-62 > 100 µM | RXF 393 > 100 µM | UACC-257 > 100 µM | UO-31 > 100 µM | KM12 > 100 µM | OVCAR-4 38.9 µM | 786-0 > 100 µM | IGROV-1 > 100 µM

Clc1cc(Cl)c2ns[s+]c2c1Cl
inactive: SNB-75 43.4 µM | SF-539 > 100 µM | HOP-62 > 100 µM | NCI-H460 > 100 µM | COLO 205 > 100 µM | SK-MEL-28 > 100 µM | A549 > 100 µM | UACC-62 > 100 µM | RXF 393 > 100 µM | UACC-257 > 100 µM | UO-31 > 100 µM | KM12 > 100 µM | OVCAR-4 > 100 µM | 786-0 > 100 µM | IGROV-1 > 100 µM

O=C(CC(=O)C(=O)Nc1ccccc1)CC(c1ccccc1)c1c(O)c2ccccc2oc1=O (stereo not drawn)
inactive: SNB-75 > 100 µM | SF-539 > 100 µM | NCI-H460 > 100 µM | COLO 205 > 100 µM | SK-MEL-28 > 100 µM | A549 > 100 µM | UACC-62 > 100 µM | RXF 393 > 100 µM | UO-31 > 100 µM | KM12 > 100 µM | 786-0 > 100 µM | IGROV-1 > 100 µM

CCOC(=O)c1c2ccc(/C=C/c3ccccc3)ccc-2c(C(=O)OCC)c1N
inactive: SNB-75 36.7 µM | SF-539 > 100 µM | NCI-H460 > 100 µM | COLO 205 > 100 µM | SK-MEL-28 > 100 µM | A549 > 100 µM | UACC-62 73.6 µM | RXF 393 > 100 µM | UACC-257 > 100 µM | UO-31 > 100 µM | KM12 54.6 µM | OVCAR-4 34.1 µM | 786-0 > 100 µM | IGROV-1 > 100 µM

N#Cc1ccc(Sc2nc3ccccc3[nH]2)cc1
inactive: SF-539 > 100 µM | HOP-62 > 100 µM | NCI-H460 79.6 µM | COLO 205 > 100 µM | SK-MEL-28 > 100 µM | A549 78.2 µM | UACC-62 41.7 µM | RXF 393 > 100 µM | UACC-257 > 100 µM | UO-31 > 100 µM | KM12 > 100 µM | OVCAR-4 > 100 µM | 786-0 > 100 µM | IGROV-1 86.7 µM

CC(=O)NNc1nc(C)c(C(=O)NNC(=O)C(=O)Nc2c(Cl)cc([N+](=O)[O-])cc2Cl)s1
inactive: SF-539 24.2 µM | HOP-62 56.6 µM | NCI-H460 43.2 µM | COLO 205 36.3 µM | SK-MEL-28 26.4 µM | A549 31.6 µM | UACC-62 29.9 µM | UACC-257 26.6 µM | UO-31 27.4 µM | RPMI-8226 44.7 µM | KM12 40 µM | OVCAR-4 22.1 µM | 786-0 33 µM | IGROV-1 49.3 µM

C=C1C(OC(=O)/C=C/c2ccccc2)CC(OC(C)=O)C2(C)C1CC1CC(OC(C)=O)C(C)=C(C(OC(C)=O)C2OC(C)=O)C1(C)C (stereo not drawn)
inactive: SNB-75 > 100 µM | SF-539 > 100 µM | HOP-62 > 100 µM | NCI-H460 6.67 µM | COLO 205 34 µM | A549 5.45 µM | UACC-62 > 100 µM | UO-31 > 100 µM | RPMI-8226 3.13 µM | KM12 8.59 µM | 786-0 > 100 µM | IGROV-1 > 100 µM
